Data: ChEMBL document CHEMBL5325424, “Structural design, synthesis, and anti-Trypanosomatidae profile of new Pyridyl-thiazolidinones” (Eur J Med Chem, 2023)
The source made the active and inactive calls. The calls are words filed in the database; no cut-off is given here.

Experiments:
Leishmania amazonensis [1] = test: Antileishmanial activity against Leishmania amazonensis WHOM/00 LTB 0016 amastigotes infected in mouse RAW264.7 cells assessed as parasite growth inhibition incubated for 24 hrs by panoptic staining based assay; type: functional, organism-based; settings: WHOM/00 LTB 0016, RAW264.7, 24 h
[2] = Selectivity index, ratio of CC50 for mouse RAW264.7 cells to IC50 for Trypanosoma cruzi Y trypomastigotes infected in African green monkey Vero cells; type: toxicity; settings: read-out: Ratio CC50/IC50
Trypanosoma cruzi [3] = test: Antitrypanosomal activity against Trypanosoma cruzi Tulahuen amastigotes infected in mouse L929 cells assessed as parasite growth inhibition measured after 7 days by CPRG/Nonidet based assay; type: functional, organism-based; settings: L929, 168 h
Trypanosoma cruzi [4] = test: Antitrypanosomal activity against Trypanosoma cruzi Y trypomastigotes infected in African green monkey Vero cells assessed as parasite growth inhibition incubated for 24 hrs by hemocytometry; type: functional, organism-based
[5] = Selectivity index, ratio of CC50 for mouse RAW264.7 cells to IC50 for Leishmania amazonensis WHOM/00 LTB 0016 amastigotes infected in mouse RAW264.7 cells; type: toxicity, cell-based; settings: read-out: Ratio CC50/IC50
[6] = Selectivity index, ratio of CC50 for mouse RAW264.7 cells to IC50 for Leishmania amazonensis WHOM/00 LTB 0016 promastigotes; type: toxicity; settings: read-out: Ratio CC50/IC50
[7] = Selectivity index, ratio of CC50 for mouse RAW264.7 cells to IC50 for Trypanosoma cruzi Tulahuen amastigotes infected in mouse L929 cells; type: toxicity, cell-based; settings: read-out: Ratio CC50/IC50
[8] = Cytotoxicity against mouse RAW264.7 cells incubated for 48 hrs by MTT assay; type: toxicity, cell-based
Leishmania amazonensis [9] = test: Antileishmanial activity against Leishmania amazonensis WHOM/00 LTB 0016 promastigotes assessed as parasite growth inhibition incubated for 72 hrs; type: functional, organism-based; settings: WHOM/00 LTB 0016, 72 h
Splenocyte = test: Immunomodulatory activity in mouse splenocytes assessed as reduction in IL-6 level at 10 ug/ml incubated for 24 hrs by flow cytometry; type: functional, cell-based; settings: dose 10.0 µg/ml

IC50 (Trypanosoma cruzi [3])	IC50 (Trypanosoma cruzi [4])	Compound	IC50 (Leishmania amazonensis [1])	selectivity ratio [2]	selectivity ratio [5]	selectivity ratio [6]	selectivity ratio [7]	CC50 at 48 h [8]	IC50 (Leishmania amazonensis [9])	Activity (Splenocyte)
8.74 µM	4.2 µM	C/C(=N\N=C1/SCC(=O)N1c1ccccc1)c1ccccn1	322 µM	53.2	0.69	0.9	25.5	223 µM	259 µM	–
235 µM	51.1 µM	CNC(=S)N/N=C(\C)c1ccncc1	481 µM	11.1	1.18	2.43	2.4	567 µM	233 µM	–
72.4 µM	362 µM	C/C(=N\N=C1/NC(=O)C(C(C)C)S1)c1ccncc1 (stereo not given)	72.4 µM	0.5	2.46	0.2	2.46	179 µM	724 µM	–
0.84 µM	43.9 µM	CC(C)C1S/C(=N/N=C/c2ccccn2)NC1=O (stereo not given)	8.77 µM	5.8	29.2	6.4	305	256 µM	40.3 µM	–
80.5 µM	111 µM	C/C(=N\N=C1/SCC(=O)N1C)c1ccccn1	80.5 µM	2.6	3.61	0.6	3.61	291 µM	506 µM	–
0.76 µM	84.4 µM	CNC(=S)N/N=C(\C)c1ccccn1	27.2 µM	0.08	0.27	0.1	9.75	7.49 µM	69.5 µM	–
8.21 µM	11.3 µM	O=C1CS/C(=N/N=C/c2ccccn2)N1	62.8 µM	42.6	7.74	6	59.3	486 µM	80.6 µM	–
0.62 µM	322 µM	C/C(=N\N=C1/SCC(=O)N1c1ccccc1)c1ccncc1	323 µM	0.5	0.48	0.2	250	155 µM	644 µM	–
7.59 µM	403 µM	C/C(=N\N=C1/SCC(=O)N1C)c1ccncc1	403 µM	1.1	1.05	0.5	56.2	426 µM	806 µM	–
5.81 µM	427 µM	CN1C(=O)CS/C1=N/N=C/c1ccccn1	427 µM	0.6	0.64	0.3	47.1	274 µM	854 µM	–
5.66 µM	2.04 µM	CNC(=S)N/N=C/c1ccccn1	515 µM	27	0.1	3.97	9.72	55.1 µM	13.8 µM	–
0.89 µM	1.5 µM	C/C(=N\N=C1\SC(C(C)C)C(=O)N1c1ccccc1)c1ccncc1 (stereo not given)	5.7 µM	197	51.9	13.2	332	296 µM	22.4 µM	–
–	–	CCCCCCCCCCCCCCCCOP(=O)([O-])OCC[N+](C)(C)C [MILTEFOSINE]	7.08 µM	–	17.5	8.79	–	–	15.8 µM	Active
1.6 µM	99.8 µM	N/C(S)=N/N=C/c1ccccn1	555 µM	0.08	0.01	0.54	5.37	8.65 µM	15.9 µM	–
6.3 µM	185 µM	C/C(=N\N=C1/NC(=O)CS1)c1ccncc1	427 µM	1.5	0.64	0.3	43.8	276 µM	854 µM	–
0.75 µM	11 µM	CC(C)C1S/C(=N/N=C/c2ccccn2)N(C)C1=O (stereo not given)	18.6 µM	–	14.3	13.2	355	267 µM	20.2 µM	–
9.15 µM	38 µM	C/C(=N\N=C1\NC(=O)CS1)c1ccccn1	241 µM	3.5	0.55	8.9	14.7	134 µM	15.1 µM	–
68.9 µM	344 µM	C/C(=N\N=C1\SC(C(C)C)C(=O)N1C)c1ccncc1 (stereo not given)	68.9 µM	1	5.17	0.5	5.17	356 µM	689 µM	–
242 µM	168 µM	C/C(=N\NC(N)=S)c1ccncc1	515 µM	2.76	0.9	4.5	1.91	464 µM	104 µM	–
2.88 µM	1.27 µM	C/C(=N\NC(=S)Nc1ccccc1)c1ccncc1	370 µM	583	2	17.9	256	740 µM	41.4 µM	–
3.81 µM	70.9 µM	O=C1CS/C(=N/N=C/c2ccccn2)N1c1ccccc1	337 µM	0.9	0.18	0.1	16.2	61.9 µM	675 µM	–
1.39 µM	138 µM	C/C(=N\NC(N)=S)c1ccccn1	515 µM	0.11	0.03	0.8	11.6	16.1 µM	20 µM	–
0.81 µM	53.9 µM	CN1C(=O)C(C)(C)S/C1=N/N=C/c1ccccn1	380 µM	7.2	1.01	10.1	477	387 µM	38.3 µM	–
0.07 µM	5.77 µM	C/C(=N\NC(=S)Nc1ccccc1)c1ccccn1	85.5 µM	1	0.06	0.13	82.4	5.77 µM	41.4 µM	–
1.61 µM	89.5 µM	CC1(C)S/C(=N/N=C/c2ccccn2)NC1=O	403 µM	5	1.11	3.7	279	449 µM	123 µM	–
